From patent publication US20090149427A1, “PHARMACEUTICALLY ACCEPTABLE SALTS AND HYDRATES OF RISEDRONIC ACID” (Pliva Hrvatska d.o.o., priority 2005, published 2009)

Conditions: humidity range 0-90% RH at 25° C., over a time period of 1200 minutes, FIG. 7
Protocol: FIG. 7: Izotherm diagram for tri-sodium risedronate dihydrate showing the sorption and desorption isotherm for tri-sodium risedronate dihydrate measured in a humidity range from 0-90% RH at 25° C. at DVS 1 (Surface Measurement System).

O.O.O=P([O-])([O-])C(O)(Cc1cccnc1)P(=O)([O-])O.[Na+].[Na+].[Na+] [tri-sodium risedronate dihydrate]
hygroscopicity (water absorption when humidity is raised): absorbs a minimum quantity of water
